The target in one data set is DimDAF-12 (Dirofilaria immitis, UniProt A0A7D0JJL8). The data set is described as follows: cell-based. The class given is cell-based.
A further data set concerns D. immitis iL3. As to conditions: 50 µM.
In the next data set the target is T1, HcoDAF-12 (Haemonchus contortus, UniProt A0A7I4Z123).
T1 sequence (A0A7I4Z123 444-684): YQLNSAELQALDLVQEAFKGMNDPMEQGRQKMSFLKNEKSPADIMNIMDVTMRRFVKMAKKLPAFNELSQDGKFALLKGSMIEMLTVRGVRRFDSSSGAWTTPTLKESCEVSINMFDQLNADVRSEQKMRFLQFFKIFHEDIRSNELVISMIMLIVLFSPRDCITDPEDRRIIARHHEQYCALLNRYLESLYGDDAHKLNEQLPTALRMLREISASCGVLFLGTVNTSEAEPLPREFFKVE
The data set is described as follows: Cell-based transactivation assay, Gal4-HcoDAF-12_LBD luciferase reporter in NIH3T3 cells. (A reporter such as luciferase makes a cellular process visible.)

The next data set has as its target T2, CelDAF-12 (Caenorhabditis elegans, UniProt G5EFF5).
T2 construct: fusing the LBD of the receptor of interest (Hco, Cel, Dim or BmaDAF12) and the DBD of GAL4; expressed in transfected cells; host or cells: NIH3T3
T2 sequence (G5EFF5 516-753 limits assumed): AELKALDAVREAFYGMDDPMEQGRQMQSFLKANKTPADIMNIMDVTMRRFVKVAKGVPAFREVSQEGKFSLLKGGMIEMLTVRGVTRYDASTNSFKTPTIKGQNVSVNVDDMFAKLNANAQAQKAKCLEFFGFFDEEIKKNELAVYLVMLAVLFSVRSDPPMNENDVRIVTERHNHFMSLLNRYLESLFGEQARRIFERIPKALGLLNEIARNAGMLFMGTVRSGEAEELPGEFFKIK
The data set can be described thus: cell-based. In kind it is cell-based.

The test system of the next data set is FXR. As to conditions: 10μM, 24 hours.
[1] abbreviates: NIH3T3, 24 h, technical triplicates, Fig 2, read-out: EC50 (logEC50 SE) (converted).
[2] abbreviates: concentrations well above the relevant physiological values.

Entries after “also recorded” stand apart in the source; their conditions may differ.

Sequence of DimDAF-12 (A0A7D0JJL8 587-828 limits assumed): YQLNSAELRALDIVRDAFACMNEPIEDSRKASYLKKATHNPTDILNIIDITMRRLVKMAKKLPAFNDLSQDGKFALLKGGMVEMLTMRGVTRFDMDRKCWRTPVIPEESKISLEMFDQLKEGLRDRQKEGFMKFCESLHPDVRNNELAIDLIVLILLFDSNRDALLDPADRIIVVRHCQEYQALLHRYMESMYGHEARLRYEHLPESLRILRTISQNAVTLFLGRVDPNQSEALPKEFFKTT

In the case of `C[C@H](CCC[C@@H](C)[C@H]1CC[C@H]2[C@@H]3CCC4=CC(=O)CC[C@]4(C)[C@H]3CC[C@]12C)C(=O)O` [(25R)-Δ4-DA], the “Activation of DimDAF-12 by spiked charcoal-stripped mouse serum” value on DimDAF-12 is on record as “partially complement; also recorded: partially restores; also recorded: partial restoration”.

In the case of `CC(=O)N1CCN(c2ccc(OCC3COC(Cn4ccnc4)(c4ccc(Cl)cc4Cl)O3)cc2)CC1` (stereo not drawn) [ketoconazole], the “Survival of iL3” value in the data set on D. immitis iL3 was “all iL3 died”.

For `CC(CCCC(C)C1CCC2C3=CCC4CC(=O)CCC4(C)C3CCC21C)C(=O)O` [Δ7-dafachronic acid, (25S)-Δ7-dafachronic acid], the EC50 on DimDAF-12 was 1 nM; on HcoDAF-12 (setting [1]), 12 nM; at CelDAF-12 (setting [1]), 11 nM.

With 3β-hydroxy-5-cholestenoic acid, the “Activation of FXR” value in the data set on FXR is on record as “do not activate”. Also, the “Activation of DimDAF-12 by spiked charcoal-stripped mouse serum” value at DimDAF-12 is listed as “failed to activate; also recorded: did not activate”. Further, the “Activation of HcoDAF-12 in dose-response” value at HcoDAF-12 (setting [2]) is recorded as “failed to activate”. At CelDAF-12 (setting [2]), the “Activation of CelDAF-12 in dose-response” value is listed as “failed to activate”.

For orientation: EC50 means the midpoint of the concentration-response curve.

These data come from paper PMC10313052, “Filarial DAF-12 sense the host serum to resume iL3 development during infection” (PLOS Pathogens, 2023).
